Values quoted from earlier work in US20210319872A1, “DRUG AND DEVICE COMBINATION PRODUCTS WITH IMPROVED SAFETY AND EFFICACY PROFILES” (priority 2016, published 2021).
Like-named read-outs stand apart in the source and are kept apart here.

[1] = Myelodysplastic syndrome, grade 3 or 4

For `Nc1cccc2c1CN(C1CCC(=O)NC1=O)C2=O` (stereo not drawn) [Revlimid], the “Cataract, Grade 3 or 4” value (Multiple myeloma, grade 3.4) is given as 1.4% (grade 3.4)), the Multiple organ failure [1] is given as 1.4% and the Pneumonitis [1] is given as “syndrome, grade 3 or 4, 1.4%), Pulmonary embolism, Grade 3 or 4”. For the same compound, the Pulmonary hypertension [1] was 1.4%, the Hepatotoxicity (in vivo) was 15% and the Myocardial infarction (in vivo) was under 5%. For the same compound, the “Common side effect, Other” value (listed without frequency) was “Infectious disease”, the “Serious side effect, Dermatologic” value (listed without frequency) was “Stevens-Johnson syndrome” and the “Serious side effect, Hematologic” value (listed without frequency) was “Thrombosis”. The “Serious side effect, Hepatic” value (listed without frequency) was “Liver failure”, the “Serious side effect, Other” value (listed without frequency) was “Other: Angioedema, Multiple organ failure (Myelodysplastic” and the “Serious side effect, Renal” value (listed without frequency) was “Renal: Interstitial nephritis, acute”. The “Anemia, All grades” value (mantle cell lymphoma) was 31%, the “Anemia, Grade 3 or 4” value (mantle cell lymphoma) was 11% and the Arthralgia (mantle cell lymphoma) was 8%. The Asthenia (mantle cell lymphoma) was 14%, the Backache (mantle cell lymphoma) was 13% and the Constipation (mantle cell lymphoma) was 16%. The Cough (mantle cell lymphoma) was 28%, the Diarrhea (mantle cell lymphoma) was 31% and the Dyspnea (mantle cell lymphoma) was 16.9%; mantle cell lymphoma, 18%), Epistaxis (Myelodysplastic. For the same compound, the Fatigue (mantle cell lymphoma) was 34%, the Fever (mantle cell lymphoma) was 23% and the Hypokalemia (mantle cell lymphoma) was 13%. For the same compound, the Hypoxia (mantle cell lymphoma) was “Respiratory: Hypoxia (Mantle cell lymphoma, 2%), Pleural”, the “Neutropenia, All grades” value (mantle cell lymphoma) was 49% and the “Neutropenia, Grade 3 or 4” value (mantle cell lymphoma) was 43%. The Peripheral edema (mantle cell lymphoma) was 16%, the Pleural effusion (mantle cell lymphoma) was “effusion (Mantle cell lymphoma, 7%), Pneumonia (Multiple” and the Pneumonia (mantle cell lymphoma) was “mantle cell lymphoma, 14%), Pneumonitis (Myelodysplastic”. The Pruritus (mantle cell lymphoma) was 17%, the Rash (mantle cell lymphoma) was “cell lymphoma, 22%)” and the “Thrombocytopenia, All grades” value (mantle cell lymphoma) was 36%). The “Thrombocytopenia, Grade 3 or 4” value (mantle cell lymphoma) was 28%, the Tumor flare (mantle cell lymphoma) was 10% and the Upper respiratory infection (mantle cell lymphoma) was 13%. The Arthralgia (multiple myeloma) was “Musculoskeletal: Arthralgia (Multiple myeloma, 19%;”, the Asthenia (multiple myeloma) was “Neurologic: Asthenia (Multiple myeloma, 28.2%; myelodysplastic” and the “Atrial fibrillation, Grade 3 or 4” value (multiple myeloma) was 3.7%. The Blurred vision (multiple myeloma) was “Ophthalmic: Blurred vision (Multiple myeloma, 17.3%)”, the “Cataract, Grade 3 or 4” value (multiple myeloma) was “Ophthalmic: Cataract, Grade 3 or 4 (Multiple myeloma, 9.6%;” and the “Congestive heart failure, Grade 3 or 4” value (multiple myeloma) was “failure, Grade 3 or 4 (multiple myeloma, 1.4%), Myocardial”. For the same compound, the Constipation (multiple myeloma) was “Gastrointestinal: Constipation (Multiple myeloma, 40.5%;”, the Cough (multiple myeloma) was “Respiratory: Cough (Multiple myeloma, 22.7%; myelodysplastic” and the Cramp (multiple myeloma) was 33.4%. The Insomnia (multiple myeloma) was “Insomnia (Multiple myeloma, 27.6%; myelodysplastic syndrome,”, the Peripheral edema (multiple myeloma) was “Cardiovascular: Peripheral edema (multiple myeloma, 26.3%;” and the Pruritus (multiple myeloma) was “Dermatologic: Pruritus (Multiple myeloma, 7.6%; myelodysplastic”. For the same compound, the Rash (multiple myeloma) was at most 26.1%, the Tremor (multiple myeloma) was 21.2% and the Upper respiratory infection (multiple myeloma) was 15.5%), Upper respiratory infection (Multiple myeloma, 24.6%;. The “Anemia, All grades” value (myelodysplastic syndrome) was 43.8%; myelodysplastic syndrome, 11.5%; mantle cell lymphoma,, the “Anemia, Grade 3 or 4” value (myelodysplastic syndrome) was 18.2%; myelodysplastic syndrome, 6.1%; mantle cell lymphoma, and the Arthralgia (myelodysplastic syndrome) was 21.6%. For the same compound, the Asthenia (myelodysplastic syndrome) was 14.9%, the Backache (myelodysplastic syndrome) was 20.9% and the Constipation (myelodysplastic syndrome) was 23.6%. The Cough (myelodysplastic syndrome) was 19.6%, the Cramp (myelodysplastic syndrome) was 18.2% and the Diarrhea (myelodysplastic syndrome) was 48.6%. The Epistaxis (myelodysplastic syndrome) was 14.9%, the Fatigue (myelodysplastic syndrome) was 31.1% and the Fever (myelodysplastic syndrome) was 20.9%. For the same compound, the Hypokalemia (myelodysplastic syndrome) was 17.1%; myelodysplastic syndrome, 10.8%; mantle cell lymphoma,, the Insomnia (myelodysplastic syndrome) was 10.1% and the Nasopharyngitis (myelodysplastic syndrome) was 23%. The “Neutropenia, All grades” value (myelodysplastic syndrome) was 58.8%, the “Neutropenia, Grade 3 or 4” value (myelodysplastic syndrome) was 53.4% and the Peripheral edema (myelodysplastic syndrome) was 20.3%. The Pneumonia (myelodysplastic syndrome) was 11.5%, the Pruritus (myelodysplastic syndrome) was 41.9% and the Rash (myelodysplastic syndrome) was 35.8%. For the same compound, the “Thrombocytopenia, All grades” value (myelodysplastic syndrome) was 21.5%; myelodysplastic syndrome, 61.5%; mantle cell lymphoma,, the “Thrombocytopenia, Grade 3 or 4” value (myelodysplastic syndrome) was 12.2%; myelodysplastic syndrome, 50%; mantle cell lymphoma, and the Upper respiratory infection (myelodysplastic syndrome) was 14.9%.
